Data as given in US11185511B2, “Antifungal topical composition and methods of treatment” (priority 2013, dated 2021).
Entries after “also recorded” stand apart in the source; their conditions may differ. Like-named read-outs stand apart in the source and are kept apart here.

Legend:
[1] = Particle size by dynamic light scattering (DLS); format: physicochemical; conditions: for Average size of particles (DLS): combined with PHMB in the ratio 1:3, PBS
Description: Dynamic light scattering (DLS) was used to estimate size of complexes formed. It is based on the principle that by measuring scattered light from particles in motion their size can be determined. […] Particle size was determined using Zetasizer S (Malvern instruments, UK).

Candida albicans = experiment: Chequerboard titration test (MIC, FICI) against clinical isolate of Candida albicans; format: cell-based; conditions: for Fold reduction in MIC of drug when combined with PHMB: FIG. 3; for MIC when combined with PHMB: MIC of the antifungal in combination with PHMB; for FICI / Type of interaction: antifungal combined with PHMB
Description: (§1) In vitro susceptibility of a clinical isolate of Candida albicans, Saccharomyces cerevisiae NOD 24 and S cerevisiae EBY 100 to the combination of the antifungal agent and PHMB was assessed using chequerboard assay. Interaction between the drugs and PHMB, formation of nanoparticles and cellular uptake was also assessed.
(§2) Yeast inoculum was prepared by picking five colonies from 24 hrs grown culture in SGA and mixing in RPMI 1640 with MOPS. The optical density of the mixture was adjusted spectrophotometrically to 1 which is equivalent to 3×10^7 Colony Forming Units of yeast/mi. This suspension was further diluted in RPMI 1640 with MOPS to give final inoculum size of 0.5×10^4 CFU/ml.
(§3) Chequer board titration test was carried out in sterile 96-well plates as per CLSI recommended standard procedure to test the antifungal effect of drugs alone and in combination with PHMB. RPMI 1640 medium buffered with MOPS was used as test medium. Dilutions of drug was prepared the test medium if the stock was made in DMSO and in case of stocks made in water further dilutions of drug was in water itself. Tested concentrations were: nystatin 0.000039 mg/ml to 0.02 mg/ml, amphotericin B 0.032 mg/ml to 0.0000625 mg/ml, berberine 0.01 mg/ml to 0.00002 mg/ml, ketoconazole 0.032 mg/ml to 0.0000625 mg/ml and terbinafine 0.16 mg/ml to 0.00031 mg/ml. Growth control and sterility control was present in all plates. All the plates were prepared in triplicates.
(§4) The plates were sealed with paraffin foil to prevent evaporation and kept at 37° C. for C albicans and 30° C. for S cererevisiae. MIC was recorded visually, aided with Powerwave 340 universal microplate spectrophotometer (Biotek) after 24 hours for C albicans and S cerevisiae NOD 24. […] MIC was defined as the lowest concentration at which there is no visible growth. FICI was used to analyse the drug interactions in vitro and was calculated using the equation given below: […]

[2] = tested on: Saccharomyces cerevisiae NOD 24; experiment: Chequerboard titration test (MIC, FICI) against Saccharomyces cerevisiae NOD 24; format: cell-based; conditions: for Fold reduction in MIC of drug when combined with PHMB: S cerevisiae NOD 24, FIG. 2; for MIC when combined with PHMB: S cerevisiae NOD 24, MIC of the antifungal in combination with PHMB; for FICI / Type of interaction: S cerevisiae NOD 24, antifungal combined with PHMB; for MIC: Saccharomyces cerevisiae, NOD24
Description: as §1, §2, §3, §4

[3] = tested on: Candida albicans, Saccharomyces cerevisiae NOD 24 and S cerevisiae EBY 100; conditions: chequerboard assay, organism not specified
Description: as §1, §3, §4
Wilcoxon signed rank test was used to statistically analyse changes in MICs of antifungals when combined with PHMB. P value less than 0.05 was considered significant. Statistical analysis was done using SPPSS version 2.0 software.

[4] = tested on: Saccharomyces cerevisiae EBY 100; experiment: Chequerboard titration test (MIC, FICI) against Saccharomyces cerevisiae EBY 100; format: cell-based; conditions: for Fold reduction in MIC of drug when combined with PHMB: S cerevisiae EBY100, FIG. 1; for MIC when combined with PHMB: S cerevisiae EBY 100, MIC of the antifungal in combination with PHMB; for FICI / Type of interaction: S cerevisiae EBY 100, antifungal combined with PHMB; for MIC: Saccharomyces cerevisiae
Description: as §1, §2, §3, §4

[5] = combined with PHMB in the ratio 1:3
[6] = PHMB concentration when combined with the labelled drug, read-out: MIC of PHMB with antifungals
[7] = RPMI 1640 with MOPS, 37° C., 24 hours, read-out: MIC of antifungals alone
[8] = S cerevisiae NOD 24, PHMB concentration when combined with the labelled drug, read-out: MIC of PHMB with antifungals
[9] = S cerevisiae NOD 24, RPMI 1640 with MOPS, 30° C., 24 hours, read-out: MIC of antifungals alone
[10] = EBY100, S cerevisiae EBY 100, RPMI 1640 with MOPS, 30° C., 48 hours, read-out: MIC of antifungals alone
[11] = PHMB concentration when combined with the labelled drug
[12] = RPMI 1640 with MOPS, 37° C., 24 hours
[13] = S cerevisiae NOD 24, PHMB concentration when combined with the labelled drug
[14] = S cerevisiae NOD 24, RPMI 1640 with MOPS, 30° C., 24 hours
[15] = S cerevisiae EBY 100, PHMB concentration when combined with the labelled drug
[16] = S cerevisiae EBY 100, RPMI 1640 with MOPS, 30° C., 48 hours

SMILES	Nanoparticles with PHMB observed or not (DLS) [1, 5]	Fold reduction in MIC of drug when combined with PHMB (Candida albicans) [fold]	MIC when combined with PHMB (Candida albicans; 37° C., 24 hours) [µg/mL]	MIC (Candida albicans; [6]) [µg/mL]	MIC (Candida albicans; [7]) [µg/mL]	FICI (Candida albicans)	Type of interaction (Candida albicans)	Fold reduction in MIC of drug when combined with PHMB [2] [fold]	MIC when combined with PHMB ([2]; 30° C., 24 hours) [µg/mL]	FICI [2]	Type of interaction [2]	MIC [2, 8] [µg/mL]	MIC [2, 9] [µg/mL]	Interaction with PHMB (synergy), in words [3]	Fold reduction in MIC of drug when combined with PHMB [4] [fold]	MIC when combined with PHMB ([4]; 30° C., 48 hours) [µg/mL]	FICI [4]	Type of interaction [4]	MIC [4, 10] [µg/mL]	MIC of PHMB with antifungals (Candida albicans; [11]) [µg/mL]	also measured
CC(=O)N1CCN(c2ccc(OCC3COC(Cn4ccnc4)(c4ccc(Cl)cc4Cl)O3)cc2)CC1 (stereo not shown) [Ketoconazole]	Nanoparticles were observed	4	1	0.062	4	0.281	Synergistic (FICI≤0.5 is ‘synergistic effect’)	4	1	0.5	Synergistic (FICI≤0.5 is ‘synergistic effect’)	0.5	16	Strong synergism; also recorded: Synergistic effect	4	0.31	0.263	Synergistic (FICI≤0.5 is ‘synergistic effect’)			Polydispersity index ([1]; combined with PHMB 1:3): > 1; Share of particles of size less than 10 nm ([1]; combined with PHMB 1:3): less than 10%; Peak 1 Average size (DLS) [1, 5]: 1.15±0.017; Peak 2 Average size (DLS) [1, 5]: 5.88±0.71; Peak 3 Average size (DLS) [1, 5]: 498.9±65.2; MIC ([4]; EBY100, 48 h, read-out: MIC of antifungals alone): 1.25 µg/mL
COc1ccc2cc3[n+](cc2c1OC)CCc1cc2c(cc1-3)OCO2 [Berberine]	Nanoparticles were observed	2	31.25	0.031		0.53	No interaction (>0.5 but ≤4 is ‘no interaction’)	16	0.56	0.56	No interaction (>0.5 but ≤4 is ‘no interaction’)	0.5	50		2	25	0.75	No interaction (>0.5 but ≤4 is ‘no interaction’)	50		Share of particles around 22.2±1.5 nm ([1]; combined with PHMB 1:3): 64.5%; Average size of particles (DLS) [1]: 22.22±1.591 nm; Average size of particles (DLS) ([1]; listed as berberine): around 22.2±1.5 nm; MIC ([4]; EBY100, S cerevisiae EBY 100, PHMB concentration when combined with the labelled drug, read-out: MIC of PHMB with antifungals): 0.5 µg/mL
C[C@@H]1[C@H](O)[C@@H](C)/C=C/C=C/CC/C=C/C=C/C=C/C=C/C(O[C@H]2O[C@H](C)[C@@H](O)[C@H](N)[C@@H]2O)CC2O[C@](O)(CC(O)C(O)CCC(O)CC(O)CC(O)CC(=O)O[C@H]1C)CC(O)C2C(=O)O (stereo partly shown) [Nystatin]	Nanoparticles were not detected	2	2.5			1	No interaction (>0.5 but ≤4 is ‘no interaction’)	4	0.625	0.75	No interaction (>0.5 but ≤4 is ‘no interaction’)				2	2.5	0.53	No interaction (>0.5 but ≤4 is ‘no interaction’)		0.5	MIC of antifungals alone (Candida albicans; [12]): 5 µg/mL; MIC of PHMB with antifungals [2, 13]: 0.5 µg/mL; MIC of antifungals alone [2, 14]: 2.5 µg/mL; MIC of PHMB with antifungals [4, 15]: 0.062 µg/mL; MIC of antifungals alone [4, 16]: 5 µg/mL
C[C@@H]1[C@H](O)[C@@H](C)/C=C/C=C/C=C/C=C/C=C/C=C/C=C/[C@H](O[C@@H]2O[C@H](C)[C@@H](O)[C@H](N)[C@@H]2O)C[C@@H]2O[C@](O)(C[C@@H](O)C[C@@H](O)[C@H](O)CC[C@@H](O)C[C@@H](O)CC(=O)O[C@H]1C)C[C@H](O)[C@H]2C(=O)O [Amphotericin B]	Nanoparticles were not detected	2	0.5			0.53	No interaction (>0.5 but ≤4 is ‘no interaction’)	16	0.25	0.56	No interaction (>0.5 but ≤4 is ‘no interaction’)			Synergistic effect	4	4	0.5	Synergistic (FICI≤0.5 is ‘synergistic effect’)		0.031	MIC of antifungals alone (Candida albicans; [12]): 1 µg/mL; MIC of PHMB with antifungals [2, 13]: 0.5 µg/mL; MIC of antifungals alone [2, 14]: 4 µg/mL; MIC of PHMB with antifungals [4, 15]: 0.5 µg/mL; MIC of antifungals alone [4, 16]: 16 µg/mL; Type of interaction ([4]; listed as amphotericin B): synergy
CN(C/C=C/C#CC(C)(C)C)Cc1cccc2ccccc12 [Terbinafine]		4	1	0.5	4	0.5	Synergistic (FICI≤0.5 is ‘synergistic effect’)	16	2.5	0.312	Synergistic (FICI≤0.5 is ‘synergistic effect’)	0.062	4	Strong synergism; also recorded: Synergistic effect	8	2.5	0.14	Synergistic (FICI≤0.5 is ‘synergistic effect’)	20		
